Results as given in publication PMC5738391, “Three classes of ligands each bind to distinct sites on the orphan G protein-coupled receptor GPR84” (Scientific Reports, 2017).
Values belong to the molecule of their own block, whether it stands above or below them.

How the values were obtained:
[1] = molecular target: T1, human GPR84 (FLAG-hGPR84-eYFP) (Homo sapiens, UniProt Q9NQS5); test: [35S]GTPγS binding, membranes of cells expressing FLAG-hGPR84-eYFP; type: biochemical
T1 construct: expressed in transfected cells
T1 sequence (Q9NQS5 whole entry): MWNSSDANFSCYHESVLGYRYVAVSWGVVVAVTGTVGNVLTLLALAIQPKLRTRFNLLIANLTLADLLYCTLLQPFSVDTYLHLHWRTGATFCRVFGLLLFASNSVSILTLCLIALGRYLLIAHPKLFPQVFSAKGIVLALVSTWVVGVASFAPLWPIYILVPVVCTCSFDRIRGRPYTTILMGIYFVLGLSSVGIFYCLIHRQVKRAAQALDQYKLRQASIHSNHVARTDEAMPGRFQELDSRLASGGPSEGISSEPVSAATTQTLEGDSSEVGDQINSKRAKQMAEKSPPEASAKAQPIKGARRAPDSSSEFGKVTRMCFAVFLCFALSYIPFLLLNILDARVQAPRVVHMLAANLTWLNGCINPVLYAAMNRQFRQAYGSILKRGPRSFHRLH
Protocol: Membranes were generated from Flp-In T-REx HEK293 cells treated with 100 ng/mL doxycycline to induce expression of the receptor construct of interest. Cells were washed with ice-cold phosphate-buffered saline, removed from dishes by scraping and centrifuged at 3000 rpm for 5 min at 4 °C. Pellets were resuspended in TE buffer (10 mM Tris-HCl, 0.1 mM EDTA; pH 7.5) containing a protease inhibitor mixture (Roche Applied Science, West Sussex, UK) and homogenized with a 5 ml hand-held homogenizer. This material was centrifuged at 1500 rpm for 5 min at 4 °C and the supernatant was further centrifuged at 50000 rpm for 45 min at 4 °C. The resulting pellet was resuspended in TE buffer and protein content was assessed using a BCA protein assay kit (Pierce, Fisher Scientific, Loughborough, UK).
The reaction was then initiated with addition of [^35S]GTPγS (50 nCi per tube), and the reaction was terminated after 45 minutes incubation at 30 °C by rapid filtration through GF/C glass filters using a 24-well Brandel cell harvester (Alpha Biotech, Glasgow, UK). […] Dried filters were added to 3 mL of Ultima Gold^TM XR (PerkinElmer Life Sciences, Beaconsfield, UK) and [^35S]GTPγS binding was determined by liquid scintillation spectrometry.
All data are presented as means ± SEM of at least three independent experiments. Data analysis and curve fitting was carried out using the GraphPad Prism software package version 5.0b (GraphPad, San Diego). […] In case of inhibition experiments with antagonists an equivalent analysis was followed to fit an inverse sigmoidal curve. To perform the statistical analysis of curve parameters, data from multiple experiments were fitted independently and resulting curve fit values were analysed with indicated tests. For radioligand binding data, saturation binding curves were generated by fitting the specific binding, which was obtained by subtracting non-specific from total binding, to a one site specific binding model that allows calculation of Kd values for the radioligand at wild type and mutant receptors. To determine affinity of unlabelled ligands, data obtained in displacement assays were fit to an inverse three parameter sigmoidal curve constrained by radioligand affinity and concentration to allow for Ki calculation.

[2] = molecular target: GPR84-Cys^352Ile Gαi2 fusion protein (Homo sapiens, UniProt Q9NQS5); test: [3H]G9543 radioligand binding (saturation and displacement), GPR84-Cys352Ile Gαi2 fusion protein; set-up: Cys352Ile Gαi2 (fusion partner, same polypeptide); expressed in transfected cells; host or cells: membranes of Flp-In T-REx 293 cells, doxycycline-induced; details: displacement assay
GPR84-Cys^352Ile Gαi2 fusion protein, sequence (Q9NQS5 2-396): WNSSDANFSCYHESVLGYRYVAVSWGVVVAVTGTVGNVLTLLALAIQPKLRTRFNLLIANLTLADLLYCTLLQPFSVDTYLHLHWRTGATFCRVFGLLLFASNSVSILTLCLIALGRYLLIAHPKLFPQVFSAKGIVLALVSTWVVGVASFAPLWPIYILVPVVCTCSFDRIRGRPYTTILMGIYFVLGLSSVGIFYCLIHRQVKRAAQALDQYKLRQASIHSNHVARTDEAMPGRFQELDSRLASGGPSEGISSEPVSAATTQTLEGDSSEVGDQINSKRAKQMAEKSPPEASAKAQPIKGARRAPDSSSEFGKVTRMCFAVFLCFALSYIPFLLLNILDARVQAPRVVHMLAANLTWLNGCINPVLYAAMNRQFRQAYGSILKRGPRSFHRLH
Protocol: [^3H]G9543 is an analog of compounds 104, 107 and 161 with the same characteristic 2-(substituted-alkoxy)-9-substituted-6,7-dihydro-pyrimido[6,1-a]isoquinolin-4-one chemotype. […] Binding was initiated by the addition of membranes (5 µg of protein per tube). All assays were performed at 25 °C for 1 h before termination by the addition of ice-cold phosphate-buffered saline and vacuum filtration through GF/C glass filters using a 24-well Brandel cell harvester (Alpha Biotech, Glasgow, UK). Each reaction tube was washed three times with ice-cold PBS. The filters were allowed to dry for 2–3 h and then placed in 3 ml of Ultima Gold^TM XR. Radioactivity was quantified by liquid scintillation spectrometry. Specific binding was defined as the difference between binding detected in the presence and absence of 1 µM compound 104.
All data are presented as means ± SEM of at least three independent experiments. Data analysis and curve fitting was carried out using the GraphPad Prism software package version 5.0b (GraphPad, San Diego). For functional assays the concentration-response data were plotted on a log axis, with the untreated vehicle control plotted at 1 log unit lower than the lowest ligand concentration, and fitted to a three parameter sigmoidal curve with the Hill slope constrained to equal 1. In case of inhibition experiments with antagonists an equivalent analysis was followed to fit an inverse sigmoidal curve. To perform the statistical analysis of curve parameters, data from multiple experiments were fitted independently and resulting curve fit values were analysed with indicated tests. For radioligand binding data, saturation binding curves were generated by fitting the specific binding, which was obtained by subtracting non-specific from total binding, to a one site specific binding model that allows calculation of Kd values for the radioligand at wild type and mutant receptors. To determine affinity of unlabelled ligands, data obtained in displacement assays were fit to an inverse three parameter sigmoidal curve constrained by radioligand affinity and concentration to allow for Ki calculation.

[3] = tested on: wild type GPR84; set-up: method as in PMID 25425658; details: cited from earlier work
[4] = tested on: patients with ulcerative colitis; set-up: method as in doi:10.1093/ecco-jcc/jjx002.734; details: cited from earlier work

ability to limit [35S]GTPγS binding induced by EC80 concentrations of C10 (50 μM), embelin (3 μM) and DIM (5 μM) [1]: more potent than 161
ability to compete with [3H]G9543 binding [2]: competed fully and effectively
Ki ([2]; read-out: pKi, competition with [3H]G9543 (converted)): 1.86 nM
SMILES: O=c1nc(OC[C@H]2COCCO2)cc2n1CCc1cc(OCc3noc(C4CC4)n3)ccc1-2 [Compound 104, 9-(5-cyclopropyl-[1,2,4]oxadiazol-3-ylmethoxy)-2-((R)-1-[1,4]dioxan-2-ylmethoxy)-6,7-dihydro-pyrimido[6,1-a]isoquinolin-4-one]

SMILES: CCCCCCCCCCN [decylamine]
response of wild type GPR84 [3]: failed to respond

SMILES: O=c1nc(OC[C@@H]2COCCO2)cc2n1CCc1cc(C#CC3CC3)ccc1-2 [GLPG1205]
efficacy in patients with ulcerative colitis ([4]; 12 weeks of chronic dosing): did not show efficacy
safety and tolerability ([4]; patients with ulcerative colitis): safe and tolerable
